Measured values reported in US20040014671A1, “Preventives or remedies for heart failure” (priority 2000, published 2004).
Where a SMILES comes first, the peptide text is derived from it. [ ]: non-standard residue; d: D form. dTrp(2-Me) = Cc1[nH]c2ccccc2c1C[C@@H](N)C(=O)O; d2Nal = N[C@H](Cc1ccc2ccccc2c1)C(=O)O

Experiments:
[1] = test system: anesthetized open-chest rabbits; assay: Cardiac function of anesthetized open-chest rabbit after intravenous administration; assay type: in vivo
Method: The effects of pralmorelin on cardiac function were evaluated by measuring various parameters [blood pressure, heart rate, systolic left ventricular pressure (LVPsys), and maximal positive dP/dt (+dP/dtmax) obtained by differentiating the waveform of left ventricular pressure (LVP)]. The value of the maximal positive dP/dt for the left ventricular pressure (+dP/dtmax) is particularly important to determine if the cardiotonic action is sufficient to treat acute heart failure.
Pralmorelin dihydrochloride (hereunder referred to as KP-102) (prepared by the method described in WO 9304081) was dissolved in distilled water for injection to prepare a 1.5 mg/mL solution.
Male NZW-strain rabbits (Kitayama Labes) weighing about 2 kg were used in the experiment. After arrival, the animals were allowed to eat a solid meal (Labo R Stock, Oriental Yeast Co., Ltd.) and drink water in a room at a temperature of 20±2° C. and at a humidity of 55±15% under 12-hr light/ dark cycles (from 7:00 to 19:00); the animals were kept under these conditions for at least 6 days before use.
Rabbits were anesthetized by administering 30 mg/kg of sodium pentobarbital into the auricular vein at a slow speed with attention to their breathing. The animals were then fixed in supine position and an endotracheal cannula was inserted. Under artificial respiration (tidal volume, 25 mL/breath; ventilation frequency, 45 breaths/min: SN-480-7 of Shinano Seisakusyo), the chest of each animal was opened by midline incision and the pericardium was incised to expose the heart. The left ventricular pressure (LVP) was measured with a pressure transducer (TP-300T, Nihon Kohden) and a pressure amplifier (AG-610G, Nihon Kohden) as a cannula with syringe was inserted from the cardiac apex into the left ventricle. The waveform of LVP was differentiated with a differentiator unit (ED-601, Nihon Kohden) to determine the maximal positive dP/dt(+dP/dtmax), which was used as an index for cardiac contractility. Blood pressure was measured with a pressure amplifier (AP-610G, Nihon Kohden) via a pressure transducer (TP-300T, Nihon Kohden) connected to a cannula inserted into the left femoral artery. Heart rate was measured with a cardiotachometer (AT-601G, Nihon Kohden) that was driven by counting the pulse waves of LVP. The parameters mentioned above were recorded on a recorder (TA-11, Gould). A cannula was inserted into the left femoral vein so as to assist in the administration of the test substance. The rectum temperature of each animal was controlled at 39° C. with a body temperature controller (TK-43, Asahi Denshi). The anesthetic was added as required but additional anesthetization should be avoided during the measurements.
After each parameter stabilized, distilled water (0.2 mL/kg) was administered over one minute with an infusion pump (FP-W-100, Toyo Sangyo K.K.) and observations were made for 5 minutes after the administration to see whether the vehicle would have no effect. About 5 minutes after the administration of distilled water, the test substance was administered with an infusion pump in a volume of 0.2 mL/kg over one minute according to the grouping method specified above. Each hemodynamic parameter was measured both before administration and 1, 3, 5, 10, 15, 20 and 25 minutes after administration and the percent changes from the basal values were calculated. In some animals, measurement was conducted until 40 minutes after the administration of the test substance.
The results were each expressed by mean ± standard deviation. Any difference between groups was tested by repeated measures ANOVA (analysis of variance); The significance level was set at 5%.

[2] = test system: dogs with occluded anterior descending coronary artery; assay: Cardiac function of dog with anterior descending coronary artery occlusion after intravenous administration; assay type: in vivo; settings: 100 μg/kg intravenously after occlusion
Method: Using a dog model of acute contractile dysfunction caused by occlusion of the anterior descending coronary artery, the inventors studied the cardiotonic action of pralmorelin.
The action of pralmorelin on the cardiac dysfunction deteriorated by occlusion of the coronary artery was evaluated by various hemodynamic parameters, cardiac output (CO), stroke volume (SV), maximal positive dP/dt of left ventricular pressure (+dP/dtmax), ejection fraction (EF), mean blood pressure (MBP), heart rate (HR), total peripheral resistance (TPR) and double product (RPP) as an index of myocardial oxygen consumption.
Pralmorelin dihydrochloride (hereunder referred to as KP-102) (prepared by the method described in WO 9304081) was dissolved in distilled water to prepare a 0.5 mg/mL solution.
In the experiment, adult beagles of either sex (weighing 9-11 kg) purchased from Nihon Nosan Kogyo K.K. (Kanagawa, Japan) were used. After arrival, the animals were allowed to eat a solid meal (CD-5, CLEA Japan, Inc. or Labo D Stock, Nark Corp.) and drink water in a room at a temperature of 20±2° C. and at a humidity of 55±15% under illumination for 12 hours a day (from 7:00 to 19:00); the animals were kept under these conditions for at least one week before use.
Anesthesia was introduced by intravenous administration of pentobarbital (30 mg/kg) and in order to maintain anesthesia, pentobarbital (5-6 mg/kg/hr) was injected continuously by means of an infusion pump (FP-W-100, Toyo Sangyo) through a polyethylene cannula retained in the right cephalic vein. The endotracheal cannula was inserted and the chest was opened at the left fourth intercostal space under artificial respiration in a tidal volume of 20 mL/kg at a rate of 18 breaths/min with an artificial respirator (SN-480-3 of Shinano Seisakusho). The left anterior descending coronary artery was carefully detached from the site of origin over a length of 1-2 cm and an occluding thread was passed through.
The chest was opened at the left fifth intercostal space and a 5-segment conductance catheter (CCS-108-DA, Unique Medical) was inserted from the cardiac apex so that all electrodes would be placed in the left ventricle. A catheter equipped with a 5 Fr microtip pressure transducer (pressure transducer catheter, Model MPC-500, MILLAR) was inserted into the left ventricle through the left carotid artery. The conductance catheter and the pressure transducer catheter inserted into the left ventricle were connected to a built-in amplifier in a ventricular volume-measuring instrument (Integral 3; VPR-1002, Unique Medical) and the changes in the left ventricular pressure (LVP) and the volume of the left ventricle were measured simultaneously. To determine the mean blood pressure (MBP), blood pressure was measured via a blood pressure amplifier (AP641G, Nihon Kohden) from the 5 Fr pressure transducer catheter inserted into the left femoral artery. Heart rate (HR) was measured with a cardiotachometer (AT-601G, Nihon Kohden) from the pulse waves of blood pressure.
The chest was opened again at the fourth intercostal space and in order to measure the cardiac output (CO(EMF)) (CO as determined by an electromagnetic blood flowmeter based method), a probe connected to an electromagnetic blood flowmeter (MFV-2100, Nihon Kohden) was fitted at the site of origin of the aorta. A spiral electrode was put in the ischemic region that occurred due to the occlusion of coronary artery and a surface electrocardiogram was recorded. A Doppler probe was fitted on the left anterior descending coronary artery and the blood flow was determined with a Doppler blood flowmeter (PD-20, Crystal Biotech). The anterior descending coronary artery was occluded with pulling up the occluding thread over a period of about 5 minutes. Complete occlusion of the blood vessel was confirmed by the change in the surface electrocardiogram and the disappearance of the Doppler sound. […]

[3] = test system: papillary muscle of guinea-pig; assay: Myocardial contractility (developed tension) in isolated papillary muscle of guinea-pig; settings: for tension development (positive inotropic action) vs baseline: applied cumulatively 10, 30 and 100 μM, n=5, FIG. 1; for change in developed tension: isolated papillary muscle, 1 Hz stimulation
Method: The direct effect of pralmorelin on myocardial contractility was evaluated using the isolated cardiac muscle of guinea-pigs according to the standard method for evaluating myocardial contractility.
Male Hartley guinea-pigs (body weight, 301-350 g; Japan SLC) were purchased. The animals were accommodated to an environment at a temperature of 23±2° C. and a humidity of 55±15% under 12-hr light/dark cycles while they were allowed to eat and drink water ad libitum until they weighed 360-480 g. Each test substance was tested on a group of five animals.
The test substances were pralmorelin dihydrochloride (KP-102), representatives of growth hormone secretagogues such as hexarelin, ghrelin and ibutamorelin methanesulfonate (the last being hereunder referred to as MK-0677) (which were prepared by the method described in JP 6-263737 A (kokai)), as well as a recombinant human growth hormone (Sumitomo Pharmaceutical) and amrinone (Sigma) which is a known therapeutic of acute heart failure. KP-102, hexarelin and MK-0677 were dissolved in distilled water. Ghrelin was dissolved in physiological saline. Amrinone was first dissolved in dimethyl sulfoxide and then diluted with physiological saline. The growth hormone was dissolved in a dedicated solubilizer (0.3 w/v % metacresol and 3.9 w/v % D-mannitol). None of the test substance solutions should be added in an amount exceeding 1 w/v %. All reagents other than the test substances were guaranteed products of Nacalai Tesque.
The guinea-pigs were stunned with a blow to the back of their head; thereafter, the carotid artery was incised and the animals were exsanguinated to death. The chest was opened, the blood vessels in the upper part of the heart were cut and the heart was removed. The heart was immediately transferred into a Krebs-Henseleit (K-H) nutrient solution (NaCl, 118.0 mM; KCl, 4.7 mM; CaCl2. 2H2O, 1.0 mM; KH2PO4, 1.2 mM; MgSO4.7H2O, 1.2 mM; NaHCO3, 25.0 mM; glucose, 11.0 mM) that had been fully aerated with 95% O2-5% CO2. The heart was fixed on a rubber-lined Petri dish with needles such that its front face was seen. The ventricular wall of the upper right ventricle (toward the atrium) was excised transversely along the atrium, then excised longitudinally along the interventricular septum so that the ventricular wall was opened to expose the right ventricular papillary muscle. Subsequently, the entire surface of the left ventricle was cut open from the aorta (down) to the apex and the anterior wall of the left ventricle was opened wide, to both right and left, and fixed to expose the papillary muscle of the left ventricle. The tricupsid or mitral valve was cut off from the ventricle and the papillary muscle was cut off at the base to prepare a specimen of papillary muscle. The base of the specimen was fixed to field stimulating electrodes in an organ bath filled with 15 mL of the nutrient solution. The tendinous cord adhering to the valve was tied up with a thread and connected to an FD pickup (TB-612T, Nihon Kohden). A resting tension of 0.5 g was loaded and the papillary muscle was driven with an electric stimulator (SEN-3201, Nihon Kohden) at a frequency of 1 Hz by pulses of 20-ms duration and at a voltage intensity about 1.2 times the threshold. After an equilibration period of about 1 hr, KP-102, hexarelin and amrinone were each applied cumulatively up to amounts of 10, 30 and 100 μM. After examination of the changes in inotropic action due to the application of the test substances, 12.5 mM of CaCl2 was added and the maximum tension that was developed by each specimen was obtained. The developed tension was recorded with a multi-purpose preamplifier (RMP-6008, Nihon Kohden) and a recorder (WT-647G, Nihon Kohden).
Each result was expressed by mean ± standard error. […]

[4] = 300 μg/kg intravenously over one minute, n=4

C[C@H](NC(=O)[C@@H](Cc1ccc2ccccc2c1)NC(=O)[C@@H](C)N)C(=O)N[C@@H](Cc1c[nH]c2ccccc12)C(=O)N[C@H](Cc1ccccc1)C(=O)N[C@@H](CCCCN)C(N)=O [KP-102, D-alanyl-3-(naphthalen-2-yl)-D-alanyl-L-alanyl-L-tryptophyl-D-phenylalanyl-L-lysinamide] (H-[dA][d2Nal]AW[dF]K-NH2)
onset of cardiotonic action (LVPsys, +dP/dtmax) after administration ([1]; 300 μg/kg intravenously): beginning one minute after the administration | overall effect on heart rate ([1]; 300 μg/kg intravenously): little affected | time of peak of cardiotonic action after administration ([1]; 300 μg/kg intravenously): 5 to 10 min | time until blood pressure baseline value practically restored ([1]; 300 μg/kg intravenously): ~25 min | maximum increase in +dP/dtmax, of the baseline value [1, 4]: 22% | maximum increase in LVPsys, of the baseline value [1, 4]: 13% | heart rate drop from baseline ([1]; 300 μg/kg intravenously, 3 minutes after administration): 2% | heart rate increase from baseline ([1]; 300 μg/kg intravenously, 15 minutes after administration): 1% | heart rate increase from baseline ([1]; 300 μg/kg intravenously, 25 minutes after administration): 2% | time until baseline values (LVPsys, +dP/dtmax) restored ([1]; 300 μg/kg intravenously, one case with extended monitoring): ≤ 40 min | mean blood pressure change vs control group ([1]; 300 μg/kg intravenously, p<0.05): significant rise of blood pressure | change in LVEDP [2]: Neither of the control and KP-102 groups showed changes | change in LVPsys [2]: Neither of the control and KP-102 groups showed changes | change in double product (RPP), index of myocardial oxygen consumption [2]: Neither group experienced a change in RPP | change in heart rate (HR) [2]: Neither of MBP and HR changed | change in mean blood pressure (MBP) [2]: Neither of MBP and HR changed | change in −dP/dtmax vs control group [2]: no significant change | increase in stroke volume (SV) from baseline before administration ([2]; 5 minutes after administration): 5% | maximal increase in ejection fraction (EF) ([2]; 10 minutes): 10% | increase in +dP/dtmax from baseline before administration ([2]; 10 minutes after administration): 7% | maximum increase in cardiac output (CO) from baseline before administration ([2]; 10 minutes after administration, n=5): 7% | change in total peripheral resistance (TPR) ([2]; significant vs control): TPR dropped following the administration | tension development (positive inotropic action) vs baseline [3]: significant effect over the baseline value

Cc1[nH]c2ccccc2c1C[C@@H](NC(=O)[C@@H](N)Cc1cnc[nH]1)C(=O)N[C@@H](C)C(=O)N[C@@H](Cc1c[nH]c2ccccc12)C(=O)N[C@H](Cc1ccccc1)C(=O)N[C@@H](CCCCN)C(N)=O [hexarelin] (H-H[dTrp(2-Me)]AW[dF]K-NH2)
tension development (positive inotropic action) vs baseline [3]: very weak and by no means significant over the baseline value

ghrelin
change in developed tension ([3]; 1 μM): no changes in the developed tension

CC(C)(N)C(=O)N[C@H](COCc1ccccc1)C(=O)N1CCC2(CC1)CN(S(C)(=O)=O)c1ccccc12 [MK-0677, ibutamorelin methanesulfonate]
change in developed tension ([3]; 100 μM): no changes in the developed tension

recombinant human growth hormone: recombinant human growth hormone (Sumitomo Pharmaceutical)
change in developed tension ([3]; 0.2 IU/mL): no changes in the developed tension

Nc1cc(-c2ccncc2)c[nH]c1=O [amrinone]
tension development (positive inotropic action) vs baseline [3]: increased in a concentration-dependent manner
